# In patent US4656178A (priority 1985, dated 1987):
# Where a name gives a salt, the structure may show the parent alone. Read-outs that look alike come from different tables or passages of the source.
# Legend:
# [1] = test system: arrhythmia induced by adrenalin; assay: arrhythmia induced by adrenalin in dogs with ligated coronary artery; type: in vivo; details: 0.1-0.2 mg/kg
# [2] = effect on arterial pressure and breathing in narcotized cats and dogs; type: in vivo; details: intravenous, 0.05, 0.1, 0.5, 1 mg/kg
# Source text: With the view to evaluate the effect of the preparation according to the present invention on arterial pressure and breathing, experiments have been carried out on narcotized cats and dogs.
# [3] = test system: cardiac rhythm disturbances; assay: clinical study in patients with cardiac rhythm disturbances; type: in vivo, human
# Experimental: The clinical study of the preparation according to the present invention was carried out on 200 patients suffering from various diseases accompanied by different cardiac rhythm disturbances (ischemic heart disease, diverse kinds of cardiomyopathy). The preparation was administered intravenously using 1-2 ampoules (0.5% solution of the preparation, 2 ml) and per os in tablets of 50 mg each (2-3 tablets a day during the first 2 days and 1-2 tablets a day during all following days). ECG characteristics, arterial pressure, heart beat rate and various parameters of hemodynamics were recorded.
# [4] = teratogenicity in pregnant rats; type: in vivo; details: 317 pregnant rats, 2,377 feti
# [5] = infiltration anesthesia in rabbits (intracutaneous); type: in vivo; details: 0.01-0.05% and 0.1% solutions
# Experimental: The local anesthetic effect of the preparation was studied on 14 intact rabbits. […] The results of the experiments on determination of the ability of the preparation to cause infiltration anesthesia have shown that 10-15 minutes after intracutaneous administration, to rabbits, of 0.01-0.05% and 0.1% solutions of the preparation anesthesia occurs which is characterized by an increased threshold of a pain irritation; the duration of the effect is 20 to 48 hours. Under the same conditions of the experiment, the local anesthetic effect of a 0.5% solution of novocaine lasts for 90 minutes on the average.
# [6] = test system: cardiotoxic effect of the preparation; assay: sodium bicarbonate at cardiotoxic effect of the preparation in dogs; details: toxic doses
# [7] = sugar, protein and enzymes in rats' blood; type: in vivo; details: 1 mg/kg, single and lasting administration
# [8] = diuresis and urine of rats; type: in vivo; details: 0.5-1 mg/kg
# [9] = 6-month histological toxicity, rabbits; type: in vivo; details: intravenous, 0.1 and 0.5 mg/kg, 6 months
# carcinogenicity = type: in vivo; details: subcutaneously and per os, 0.5-2 mg/kg, 6 months, observation 2 years
# [10] = test system: lethal fibrillation of the heart induced by aconitine; assay: prevention of lethal fibrillation of the heart induced by aconitine in rats; type: in vivo; details: 0.5 and 1 mg/kg
# [11] = long-time administration, histological analysis of inner organs; type: in vivo, laboratory animals (dogs, rabbits, rats); details: 10 mg/kg
# lethal dose in dogs = type: in vivo; details: intravenous
# Experimental: (§1) The resorptive effect and toxicity of the preparation according to the present invention were studied on mice, rats, rabbits and dogs.
# In doses of 5-6 mg/kg intravenously the preparation according to the present invention causes death of dogs and in doses of 3-4 mg/kg it is lethal for rabbits.
# [12] = test system: arrhythmia caused by electrical irritation; assay: arrhythmia caused by electrical irritation of the right auricle and apex of the left ventricle; type: in vivo, dogs and cats
# [13] = pharmacological effects, summary; details: in vivo
# [14] = resorptive effect and toxicity (general state); type: in vivo, mice, rats, rabbits and dogs
# Source text: as §1
# [15] = test system: cardiac arrhythmia induced by barium chloride; assay: cardiac arrhythmia induced by barium chloride; type: in vivo, narcotized rats and intact rabbits; details: 0.1 mg/kg, injected 10 minutes prior to barium
# Experimental: The study of the antiarrhythmic activity of the preparation according to the present invention on a model of cardiac arrhythmia induced by barium chloride was carried out on 56 narcotized rats and 16 intact rabbits. The preparation of the present invention in the dose of 0.1 mg/kg injected 10 minutes prior to administration of barium prevented the development of arrhythmia in 86.6% of the animals.
# [16] = test system: cardiac conductive system; type: in vivo, narcotized rats, cats, intact rabbits and dogs
# Source text: To investigate the character of the effect produced on the functions of the cardiac conductive system by the preparation according to the present invention, the ECG changes appearing in narcotized rats, cats, intact rabbits and dogs under the action of the preparation of this invention were studied. […] The effect of the preparation is retained for a long time.
# antiinflammatory effect = type: in vivo; details: doses of 1-5 mg/kg
# [17] = test system: cardiac arrhythmia caused by ligation of the descending branch of the left coronary artery; assay: cardiac arrhythmia caused by ligation of the descending branch of the left coronary artery (Harris method) in dogs; type: in vivo
# Experimental: The effect of the preparation according to the present invention on the cardiac arrhythmia caused by ligation of the descending branch of the left coronary artery by the Harris method was studied in experiments on dogs. The preparation according to the present invention was intravenously administered on the first and second post-operative days. Preliminarily, prior to every experiment 30 to 45 minutes before the administration of the preparation the background changes of the dogs' electrocardiogram (ECG) were recorded. […] In 40% thereof a full suppression of ectopic contractions was noticed for 3-3.5 hours, whereafter arrhythmia appeared with the intensity thereof not reaching the initial background during 7 hours.
# allergenic effect = type: in vivo; details: 12 guinea pigs and 6 rabbits
smiles,measurement,setting,value
CCN1CC2(OC(=O)c3ccccc3NC(C)=O)CCC(OC)C34C1C(CC23)C1(O)CC(OC)C2CC4C1(O)C2OC (stereo not drawn) [lappaconitine hydrobromide],duration of effect,[1],more than 2 hours
same,effect on arrhythmia induced by adrenalin,[1],cuts short the arrhythmia induced by adrenalin
same,effect on arterial pressure and on adrenalin hypertension,[1],does not affect the level of arterial pressure or the height of elevation of arterial pressure (hypertension) caused by adrenalin
same,time to maximum effect,[1],5 to 10 min
same,influence on arterial pressure and breathing,[2],did not exert any influence on the arterial pressure and breathing
same,efficiency by form,[3]; course treatment,more efficient for course treatment in tabletted forms
same,contraindications,"[3]; human, in vivo",No contraindications
same,"side effects (hypotension, changed heart beat rate, pulse, breathing)",[3]; patients,not observed
same,antiarrhythmic effect in patients,[3]; patients with stable form of ventricular and supraventricular extrasystole,pronounced antiarrhythmic effect
same,side effects in some cases,"[3]; per os, intramuscular or intravenous",weakness or giddeness
same,time after which side effects pass,[3]; weakness or giddeness,10 to 15 min
same,teratogenicity,[4],not a potentially teratogenic substance
same,duration of infiltration anesthesia,[5],20 to 48 h
same,onset of infiltration anesthesia,[5]; intracutaneous,10 to 15 min
same,arterial pressure in overdosing,[6],reduction of the arterial pressure
same,"content of sugar, protein and enzymes in blood",[7],does not result in substantial changes
same,effect on diuresis,[8],no effect on diuresis of rats
same,protein and blood in urine,[8]; sulphanylic acid test and benzidine test,not detected
same,destructive changes of inner organs and tissues,[9],no destructive changes on the part of inner organs and tissues
same,carcinogenic properties,carcinogenicity,no carcinogenic properties
same,prevention of lethal fibrillation of the heart,[10],fully prevents a lethal fibrillation of the heart
same,structural changes in inner organs,[11],structural changes in the inner organs
same,lethal dose,lethal dose in dogs,5 to 6 mg/kg
same,arterial pressure and amplitude of the heart beat,[12]; 0.25 and 0.5 mg/kg,not changed
same,duration of antiarrhythmic effect,[12]; 0.25 and 0.5 mg/kg,2 to 3 h
same,arrest of arrhythmia caused by electrical irritation,"[12]; 0.25 and 0.5 mg/kg intravenously, 7 dogs and 10 cats",fully stops the origination of arrhythmia
same,onset of antiarrhythmic effect,"[12]; after administration, 0.25 and 0.5 mg/kg",3 to 7 min
same,activity relative to quinidine and novocainamide (times superior),"[12]; dog, in vivo",40 times
same,moderate additional effects,[13],"moderate coronarydilating, spasmolytic, local anesthetic, anti-inflammatory and sedative effects"
same,reduction of systemic arterial pressure and negative inotropic effect,[13],"not accompanied by reduction of the systemic arterial pressure, and a negative inotropic effect on the cardiac tissue"
same,changes in general state of animals,"[14]; 0.1-1 mg/kg intravenously, 1-5 mg/kg intraperitoneally, 5-20 mg/kg per os",no considerable changes in the general state of the animals are observed
same,signs in mice and rats,"[14]; higher doses, 5 minutes on average after administration","adynamia, delayed responses, weakening of the muscular tension, rarification and deepening of breathing, lowering of the body temperature"
same,additional signs,[14]; sublethal and lethal doses,"hypersalivation, diarrhea, acute disturbances of breathing"
same,animals in which development of arrhythmia is prevented,[15],86.6%
same,effect on ECG,[16]; 1-2 mg/kg,"increase the ranges PQ, QRS, QT, insignificantly R-R; the ripple S is deepened, the amplitude of the ripple T is uniformly increased"
same,effect on myocardial conductivity and sinus node automatism,[16]; in vivo,"lowers conductivity of the myocardium and, to a lesser extent, automatism of the sinus node"
same,sublethal and lethal doses,[16]; intravenous,4 to 6 mg/kg
same,effect on ECG,"[16]; intravenous, 0.5 mg/kg",deceleration of the atrioventricular conductivity and a certain rarification of the rhythm
same,effect on ECG,"[16]; intravenous, 4-6 mg/kg",growing inhibition of conductivity along the cardiac conducting system
same,effect on ECG,"[16]; rats, intravenous, 0.05 to 0.25 mg/kg",does not cause in rats any substantial effect on the ECG
same,antiinflammatory effect,antiinflammatory effect,pronounced antiinflammatory effect
same,animals with antiarrhythmic effect,[17]; 0.5 mg/kg intravenously,86%
same,animals with 100% antiarrhythmic effect over 5 hours,[17]; 1 mg/kg,60%
same,animals with full suppression of ectopic contractions for 3-3.5 hours,[17]; 1 mg/kg,40%
same,animals with full inhibition of ventricular extrasystole,[17]; 1 mg/kg intravenously,100%
same,duration of full suppression of ectopic contractions,"[17]; 1 mg/kg, in 40% of the animals",3 to 3.5 h
same,time during which reappearing arrhythmia does not reach the initial background,"[17]; 1 mg/kg, in 40% of the animals",7 h
same,duration of 100% antiarrhythmic effect,"[17]; 1 mg/kg, in 60% of the animals",over 5 hours
same,heart beat rate,"[17]; accompanying reduction or arresting of arrhythmia, all experiments",reduction of the heart beat rate
same,time of appearance of antiarrhythmic effect,[17]; after intravenous administration,5 to 15 min
same,activity relative to novocainamide (times more active),"[17]; dog, in vivo",70 times
same,duration and rapidity of effect relative to novocainamide,"[17]; dog, in vivo","considerably superior to it in the duration of the effect, but inferior to novocainamide in the rapidity of occurrence of the antiarrhythmic effect"
same,relationship of effect to dose,"[17]; dog, in vivo",in a direct relationship with the administered dose
same,allergenic effect,allergenic effect,no allergenic effect
